Reference: patent publication US20230128688A1, “DIRECTED CONJUGATION TECHNOLOGIES” (KLEO PHARMACEUTICALS, INC., priority 2019, published 2023)
Starred links: 1 amine or outer side, 2 acyl side, 3 side chain; linkers in the order of their positions; H or OH if unused. Positions of bridges follow the written chain, without caps; N, C: chain ends. Non-standard residues stand in square brackets, D forms with d. Residues, ends and D or L forms follow the SMILES beside them. Groups on a side chain read outwards from the residue. *: point of attachment. FITC = O=C1OC2(c3ccc(O)cc3Oc3cc(O)ccc32)c2ccc(NC(=S)*)cc21; X6 = O=C([C@H](Cc1cccc(O[*:3])c1)N[*:1])[*:2]; PEG8 = NCCOCCOCCOCCOCCOCCOCCOCCOCCC(=O)O; PEG6 = NCCOCCOCCOCCOCCOCCOCCC(=O)O; PEG2 = NCCOCCOCCC(=O)O; X7 = Fc1ccc(O*)cc1

Tested on: daratumumab
Test: Absorbance based DAR analysis of FITC conjugation to antibody
Type: biochemical
Description: In some embodiments, reaction partners, e.g., compounds of formula R-I or salts thereof ere dissolved in DMSO to 5 mM stock solution.
In some embodiments, reactions are set up with 300 micrograms of antibody. In some embodiments, various conditions, including various buffers, reagent equivalents, reaction time, reaction temperature and reaction concentrations can be utilized.
As an example, one reaction is 300 microliter reaction with 1 mg/mL of antibody in PBS. Peptide I-45 (1 microliter of 5 mM stock in DMSO, 2.5 molar equivalents relative to daratumumab) was diluted in 284 microliters of PBS buffer (10 mM phosphate, 150 mM sodium chloride, pH 7.4), then 15 microliters of daratumumab (20 mg/mL stock) was added to the reaction mixture followed by incubation at room temperature in the dark. After 4 h reaction buffer was exchanged using Amicon Ultra centrifuge filter (30 KDa MWCO, 0.5 mL volume). First, glycine buffer (100 mM, pH 2.1) was used for buffer exchange to ensure dissociation of target binding moieties after reaction. Then, phosphate buffer saline (pH 7.4) was used for further buffer exchange and storage.
In another example, a reaction is 300 microliter reaction with 1 mg/mL of antibody in borate buffer. Peptide I-44 (1.2 microliter of 5 mM stock in DMSO, 3.0 molar equivalents relative to daratumumab) was diluted in 284 microliters of Borate buffer (100 mM borate, pH 8.3), then 15 microliters of daratumumab (20 mg/mL stock) was added to the reaction mixture followed by incubation at room temperature in the dark. After 20 h reaction buffer was exchanged using Amicon Ultra centrifuge filter (30 KDa MWCO, 0.5 mL volume). First, glycine buffer (100 mM, pH 2.1) was used for buffer exchange to ensure dissociation of target binding moieties after reaction. Then, phosphate buffer saline (10 mM phosphate, 150 mM sodium chloride, pH 7.4) was used for further buffer exchange and storage.
In some embodiments, a useful technology is absorbance based DAR analysis. DAR (ratio of moieties of interest and target agent moieties (e.g., antibody agent moieties) was calculated for various antibody conjugates, e.g., in various reagent screening/assessment methods. Various agents comprising target binding moieties were assessed for conjugation efficiency as reaction partners with targets, e.g. protein agents such as antibody agents, compared to reagents with the same reactive groups but without target binding moieties. In various ratio determination ‘Drug’/moiety of interest is fluorescein isothiocyanate (FITC) dye conjugated to target agents, e.g., antibody agents. DAR molar ratio is defined as a ratio of moles of drug/moiety of interest to moles of target agent/antibody. Molarity is calculated from absorbance of FITC (A485) and antibody (A280) of conjugated product, and extinction coefficients of FITC and antibody using Beer-Lambert law. Correction coefficient 0.35 was used to correct for absorbance of FITC at 280 nm. Biotek Synergy H1 microplate reader and Take3 microvolume plate were used for absorbance measurements. Concentration of antibody was at least 3 mg/mL for optimal signal-to-noise in the readings. Certain target binding moieties that can provide higher DAR compared to equivalent controls (absence of target binding moieties) were selected as hits for further analysis. Certain assessment data were provided below as examples.

[1] = 2.5 M eq reagent, phosphate buffer saline pH 7.4, 4 h, 25 C, Drug = FITC
[2] = 30 M eq reagent, borate buffer pH 8.3, 20 h, 37 C, Drug = FITC
[3] = 10 M eq reagent, Bicarbonate buffer pH 8.3, 2 h, 37 C, Drug = FITC
[4] = 10 M eq reagent, Bicarbonate buffer pH 8.3, 20 h, 25 C, Drug = FITC
[5] = 5 M eq reagent, phosphate buffer saline pH 7.4, 4 h, 25 C, Drug = FITC
[6] = 2.5 M eq, 25 C, 4 h, PBS pH 7.4
[7] = 2.5 M eq, 25 C, 20 h, Borate pH 8.2
[8] = 2.5 M eq, 25 C, 20 h, PBS pH 7.4
[9] = 2.5 M eq, 25 C, 20 h, PBS pH 7.8
[10] = 2.5 M eq, 25 C, 20 h, PBS pH 8.0
[11] = 2.5 M eq, 25 C, 20 h, PBS pH 8.2
[12] = 2.5 M eq, 30 C, 20 h, PBS pH 7.4
[13] = 2.5 M eq, 37 C, 20 h, PBS pH 7.4
[14] = 5 M eq reagent, bicarbonate buffer pH 8.3, 20 h, 37 C, Drug = FITC

CC(=O)N[C@@H](CC(=O)O)C(=O)N[C@H]1CSSC[C@@H](C(=O)N[C@H](C(=O)O)[C@@H](C)O)NC(=O)[C@H](Cc2c[nH]c3ccccc23)NC(=O)[C@H](C(C)C)NC(=O)[C@H](CC(C)C)NC(=O)[C@H](CCC(=O)O)NC(=O)CNC(=O)[C@H](CC(C)C)NC(=O)[C@H](CC(=O)NCc2ccc(OC(=O)CCOCCOCCOCCOCCOCCOCCNC(=S)Nc3ccc4c(c3)C(=O)OC43c4ccc(O)cc4Oc4cc(O)ccc43)cc2)NC(=O)[C@H](Cc2c[nH]c3ccccc23)NC(=O)[C@H](C)NC1=O [Compound I-43]
DAR [1]: 0.26

N=C(N)NCCC[C@H](NC(=O)CCOCCOCCNC(=O)[C@@H](CCC(=O)Oc1ccc(F)cc1)NC(=O)CCOCCOCCOCCOCCOCCOCCNC(=S)Nc1ccc2c(c1)C(=O)OC21c2ccc(O)cc2Oc2cc(O)ccc21)C(=O)N[C@@H](CCCNC(=N)N)C(=O)NCC(=O)N[C@@H](Cc1c[nH]c2ccccc12)C(=O)O [Compound I-26] ({FITC-PEG6}-[dE](X7)[PEG2]RRGW-OH)
DAR [2]: −0.10

N=C(N)NCCC[C@H](NC(=O)CCOCCOCCOCCOCCOCCOCCOCCOCCNC(=O)[C@H](CCC(=O)Oc1ccc(F)cc1)NC(=O)CCOCCOCCOCCOCCOCCOCCNC(=S)Nc1ccc2c(c1)C(=O)OC21c2ccc(O)cc2Oc2cc(O)ccc21)C(=O)N[C@@H](CCCNC(=N)N)C(=O)NCC(=O)N[C@@H](Cc1c[nH]c2ccccc12)C(=O)O [Compound I-27] ({FITC-PEG6}-E(X7)[PEG8]RRGW-OH)
DAR [2]: −0.02

Cc1nc2cc(C(=O)Nc3nc(-c4ccccn4)cs3)ccc2n1CCCC(=O)NCc1cc(F)c(OC(=O)CCOCCOCCOCCOCCOCCOCCNC(=S)Nc2ccc3c(c2)C(=O)OC32c3ccc(O)cc3Oc3cc(O)ccc32)c(F)c1 [Compound I-3]
DAR [3]: 1.39

COc1ccc(NC(=O)c2cn3ccsc3n2)cc1C(=O)NCCCC(=O)N[C@@H](CCC(=O)N(C)OC)C(=O)NCCOCCOCCOCCOCCOCCOCCOCCOCCN(CCCS(=O)(=O)O)C(=O)OC[C@H]1[C@@H]2CCc3c(nnn3CCOCCOCCOCCOCCNC(=S)Nc3ccc4c(c3)C(=O)OC43c4ccc(O)cc4Oc4cc(O)ccc43)CC[C@@H]21 [Compound I-20]
DAR [4]: 0.72

CCCCNc1nc(NCCOCCOCCC(=O)NCc2ccc(OC(=O)CCOCCOCCOCCOCCOCCOCCNC(=S)Nc3ccc4c(c3)C(=O)OC43c4ccc(O)cc4Oc4cc(O)ccc43)c(F)c2)nc(NCc2cccc(F)c2)n1 [Compound I-14]
DAR [3]: 0.29

CC(=O)N[C@@H](CC(=O)O)C(=O)N[C@H]1CSSC[C@@H](C(=O)N[C@H](C(=O)O)[C@@H](C)O)NC(=O)[C@H](Cc2c[nH]c3ccccc23)NC(=O)[C@H](C(C)C)NC(=O)[C@H](CC(C)C)NC(=O)[C@H](CCC(=O)O)NC(=O)CNC(=O)[C@H](CC(C)C)NC(=O)[C@H](CCNC(=O)c2ccc(OC(=O)CCOCCOCCOCCOCCOCCOCCNC(=S)Nc3ccc4c(c3)C(=O)OC43c4ccc(O)cc4Oc4cc(O)ccc43)cc2)NC(=O)[C@H](Cc2c[nH]c3ccccc23)NC(=O)[C@H](C)NC1=O [Compound I-42]
DAR [1]: 0.13

CC(C)C[C@@H]1NC(=O)[C@H](Cc2cnc[nH]2)NC(=O)[C@H](Cc2c[nH]c3ccccc23)NC(=O)[C@H](C)NC(=O)[C@@H](NC(=O)[C@@H](N)CC(=O)O)CSSC[C@@H](C(=O)N[C@H](C(=O)O)[C@@H](C)O)NC(=O)[C@H](Cc2c[nH]c3ccccc23)NC(=O)[C@H](C(C)C)NC(=O)[C@H](CC(C)C)NC(=O)[C@H](CCC(=O)Nc2cc(OC(=O)CCOCCOCCOCCOCCOCCOCCOCCOCCNC(=S)Nc3ccc4c(c3)C(=O)OC43c4ccc(O)cc4Oc4cc(O)ccc43)ccc2F)NC(=O)CNC1=O [Compound I-25]
DAR [5]: 0.10
DAR [2]: 1.25

CC(=O)N[C@@H](CC(=O)O)C(=O)N[C@H]1CSSC[C@@H](C(=O)N[C@H](C(=O)O)C(C)C)NC(=O)[C@H](Cc2c[nH]c3ccccc23)NC(=O)[C@H](C(C)C)NC(=O)[C@H](CC(C)C)NC(=O)[C@H](CCC(=O)O)NC(=O)CNC(=O)[C@H](CC(C)C)NC(=O)[C@H](Cc2cccc(OC(=O)CCOCCOCCOCCOCCOCCOCCOCCOCCNC(=S)Nc3ccc4c(c3)C(=O)OC43c4ccc(O)cc4Oc4cc(O)ccc43)c2)NC(=O)[C@H](Cc2c[nH]c3ccccc23)NC(=O)[C@H](C)NC1=O [Compound I-46] (Ac-DCAW[X6]([PEG8-FITC])LGELVWCV-OH; disulfide 2-12)
DAR [5]: 0.15
DAR [2]: 0.43

CC(=O)N[C@@H](CC(=O)O)C(=O)N[C@H]1CSSC[C@@H](C(=O)N[C@H](C(=O)O)[C@@H](C)O)NC(=O)[C@H](Cc2c[nH]c3ccccc23)NC(=O)[C@H](C(C)C)NC(=O)[C@H](CC(C)C)NC(=O)[C@H](CCC(=O)O)NC(=O)CNC(=O)[C@H](CC(C)C)NC(=O)[C@H](CC(=O)NCc2ccc(OC(=O)CCOCCOCCOCCOCCOCCOCCOCCOCCNC(=S)Nc3ccc4c(c3)C(=O)OC43c4ccc(O)cc4Oc4cc(O)ccc43)c(F)c2)NC(=O)[C@H](Cc2c[nH]c3ccccc23)NC(=O)[C@H](C)NC1=O [Compound I-44]
DAR [1]: 0.59
DAR [6]: 0.59
Fold (DAR I-44 over I-10) [6]: 7.79
DAR [7]: 1.42
Fold (DAR I-44 over I-10) [7]: 6.83
DAR [8]: 1.09
Fold (DAR I-44 over I-10) [8]: 16.08
DAR [9]: 1.00
Fold (DAR I-44 over I-10) [9]: 6.58
DAR [10]: 0.99
Fold (DAR I-44 over I-10) [10]: 15.39
DAR [11]: 1.14
Fold (DAR I-44 over I-10) [11]: 36.42
DAR [12]: 1.15
Fold (DAR I-44 over I-10) [12]: 21.43
DAR [13]: 1.66
Fold (DAR I-44 over I-10) [13]: 9.77
FITC DAR (FIG. 16 (e): Borate buffer pH 8.2, 25 C, 20 h, 2.5 M eq): 0.21

N=C(N)NCCC[C@H](NC(=O)CCOCCOCCOCCOCCOCCOCCOCCOCCNC(=O)c1ccc(OC(=O)CCOCCOCCOCCOCCOCCOCCNC(=S)Nc2ccc3c(c2)C(=O)OC32c3ccc(O)cc3Oc3cc(O)ccc32)cc1)C(=O)N[C@@H](CCCNC(=N)N)C(=O)NCC(=O)N[C@@H](Cc1c[nH]c2ccccc12)C(=O)O [Compound I-21]
DAR [4]: 0.18

Cc1nc2cc(C(=O)Nc3nc(-c4ccccn4)cs3)ccc2n1CCCC(=O)NCc1ccc(OC(=O)CCOCCOCCOCCOCCOCCOCCNC(=O)Nc2ccc3c(c2)C(=O)OC32c3ccc(O)cc3Oc3cc(O)ccc32)c(F)c1 [Compound I-12]
DAR [14]: 1.44

N=C(N)NCCC[C@H](NC(=O)CCOCCOCCNC(=O)c1ccc(OC(=O)CCOCCOCCOCCOCCOCCOCCNC(=S)Nc2ccc3c(c2)C(=O)OC32c3ccc(O)cc3Oc3cc(O)ccc32)cc1)C(=O)N[C@@H](CCCNC(=N)N)C(=O)NCC(=O)N[C@@H](Cc1c[nH]c2ccccc12)C(=O)O [Compound I-23]
DAR [4]: 0.14

O=C(CCCc1c[nH]c2ccccc12)NCc1cc(F)c(OC(=O)CCOCCOCCOCCOCCOCCOCCNC(=S)Nc2ccc3c(c2)C(=O)OC32c3ccc(O)cc3Oc3cc(O)ccc32)c(F)c1 [Compound I-16]
DAR [14]: 0.30

Cc1nc2cc(C(=O)Nc3nc(-c4ccccn4)cs3)ccc2n1CCCC(=O)NCc1ccc(OC(=O)CCOCCOCCOCCOCCOCCOCCNC(=S)Nc2ccc3c(c2)C(=O)OC32c3ccc(O)cc3Oc3cc(O)ccc32)cc1 [Compound I-13]
DAR [14]: 0.09

CCCCNc1nc(NCCOCCOCCC(=O)NCc2ccc(OC(=O)CCOCCOCCOCCOCCOCCOCCNC(=S)Nc3ccc4c(c3)C(=O)OC43c4ccc(O)cc4Oc4cc(O)ccc43)cc2)nc(NCc2cccc(F)c2)n1 [Compound I-15]
DAR [3]: 0.74

CC(=O)NCc1ccc(OC(=O)CCOCCOCCOCCOCCOCCOCCNC(=S)Nc2ccc3c(c2)C(=O)OC32c3ccc(O)cc3Oc3cc(O)ccc32)cc1 [Compound I-11]
DAR [1]: 0.05
DAR [3]: 0.14
DAR [2]: 0.14
